Results published in patent publication US8883812B2, “Piperidinyl pyrimidine amides as Kv7 potassium channel openers” (Pfizer Inc., priority 2010, dated 2014).

Key:
in vivo = settings: male, Wistar Han IGS (CRL:WI [Han]), rat, po
[1] = Predicted human efficacious concentration; settings: unbound plasma
Male Wistar Han IGS rats = assay: Safety studies - behavioral observations (rat DRF); settings: for Rat DRF Dose, Threshold for MCS / Rat DRF Dose, NOEL / Rat DRF Dose, Threshold for SAE: oral gavage, single dose; for Rat DRF Dose, Threshold for MCS: manageable clinical signs; for Rat DRF Dose, NOEL: no observable effect limit; for Rat DRF Dose, Threshold for SAE: serious adverse event; for Rat DRF Dose, Threshold for MCS / Rat DRF Dose, NOEL / Rat DRF Dose, Threshold for SAE / margin with regards to serious adverse events: rat; for margin with regards to serious adverse events: text statement comparing with retigabine
[2] = Compound concentrations (exposure) in rat DRF safety study
[3] = ratio of free brain exposure at the dose to projected human concentration
[4] = read-out: Rat DRF Cmax, Threshold for MCS, oral gavage, at MCS threshold dose
[5] = read-out: Rat DRF Cmax, Threshold for SAE, oral gavage, at SAE threshold dose

| Compound | Cmax (in vivo) [nM] | Predicted human Ceff Cp,u [1] [nM] | Rat DRF Dose, Threshold for MCS (Male Wistar Han IGS rats) [mg/kg] | Rat DRF Dose, NOEL (Male Wistar Han IGS rats) [mg/kg] | Rat DRF Dose, Threshold for SAE (Male Wistar Han IGS rats) [mg/kg] | margin with regards to serious adverse events (Male Wistar Han IGS rats) [×] | Rat DRF TI (toxicity index), NOEL (Male Wistar Han IGS rats; [3]) | Rat DRF TI (toxicity index), Threshold for MCS (Male Wistar Han IGS rats; [3]) | Rat DRF TI (toxicity index), Threshold for SAE (Male Wistar Han IGS rats; [3]) | Cmax [2, 4] [nM] | Cmax [2, 5] [nM] | Cmax ([2]; read-out: Rat DRF Cmax, NOEL, oral gavage, at NOEL dose) [nM] |
| --- | --- | --- | --- | --- | --- | --- | --- | --- | --- | --- | --- | --- |
| COc1nc(N2CCC(OC)CC2)nc(OC)c1NC(=O)CC(C)(C)C [Example 1, N-(4,6-dimethoxy-2-(4-methoxypiperidin-1-yl)pyrimidin-5-yl)-3,3-dimethylbutanamide] | 54 | 13 | 10 | 3 | 100 | 69 | 4.2 | 7.6 | 67 | 99 | 866 | – |
| CCOC(=O)Nc1ccc(NCc2ccc(F)cc2)cc1N [Retigabine, N-(2-amino-4-(4-fluorobenzylamino)-phenyl)carbamic acid ethyl ester, reference compound] | – | 607 | 30 to 50 | 30 | 50 | 3.9 | – | – | – | 870 to 2390 | 2390 | 870 |
